# Data taken from patent US12662489B2 (Sitryx Therapeutics Limited, priority 2023, dated 2026).
# Legend:
# [1] = biological target: T1, MTHFD1 recombinant human enzyme (Homo sapiens, UniProt P11586); experiment: MTHFD1 inhibition assay (NAD(P)H-Glo luminescence); settings: MTHFD1 IC50, recombinant human enzyme 200 nM, NADP, band
# T1 sequence (P11586 2-291 limits assumed): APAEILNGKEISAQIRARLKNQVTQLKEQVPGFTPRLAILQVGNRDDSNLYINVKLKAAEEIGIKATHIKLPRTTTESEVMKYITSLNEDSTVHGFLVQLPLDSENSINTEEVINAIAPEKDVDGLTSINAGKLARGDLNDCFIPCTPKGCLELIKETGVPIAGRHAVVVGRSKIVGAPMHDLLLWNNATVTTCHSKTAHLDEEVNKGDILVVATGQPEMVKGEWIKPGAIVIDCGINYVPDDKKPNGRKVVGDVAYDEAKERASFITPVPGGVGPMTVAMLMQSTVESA
# [2] = biological target: T2, MTHFD2 recombinant human enzyme (Homo sapiens, UniProt P13995); experiment: MTHFD2 inhibition assay (NAD(P)H-Glo luminescence); settings: for MTHFD1/MTHFD2 IC50 ratio: selectivity of MTHFD2 inhibition over MTHFD1, band
# T2 sequence (P13995 36-350): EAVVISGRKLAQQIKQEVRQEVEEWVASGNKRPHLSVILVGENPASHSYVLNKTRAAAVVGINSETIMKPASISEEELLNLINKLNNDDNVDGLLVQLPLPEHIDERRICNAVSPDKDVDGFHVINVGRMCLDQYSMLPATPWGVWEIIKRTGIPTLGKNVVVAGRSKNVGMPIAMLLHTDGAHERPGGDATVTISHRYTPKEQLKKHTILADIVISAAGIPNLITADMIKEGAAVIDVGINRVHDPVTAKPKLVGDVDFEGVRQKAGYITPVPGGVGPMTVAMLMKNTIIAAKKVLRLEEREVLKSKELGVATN
# human CD4+ T cells = experiment: Human CD4+ T-cell proliferation assay (CFSE, CD3/28 beads); settings: read-out: Proliferation IC50
# Procedure: Cells were incubated at room temperature for 8 minutes in a rotator in the dark. 13 mL cRPMI was added to each tube and cells were centrifuged at 500×g for 4 minutes at room temperature before pellets were resuspended in 10 mL cRPMI. Cells were counted using the Auto2000 Cellometer and AO/PI viability stain and concentration adjusted to 0.6×10^6 cells/mL in cRPMI. […] Control wells were included for flow cytometry and edge wells were filled with 200 μL 1×dPBS. Cells were incubated at 37° C., 5% CO2 for 2 days before compound treatment. […] Cells were incubated at 37° C., 5% CO2 for a further 2 days prior to flow staining and supernatant harvest.
# On the final day plates were centrifuged at 500×g for 4 minutes at room temperature. 125 μL of supernatants were transferred to a V bottom 96 well polystyrene plate and stored at −80° C. Plates were gently vortexed to disrupt the cell pellets before 125 μL 1×PBS was added to each well. Plates were centrifuged at 500×g for 4 minutes at room temperature and supernatants removed from the plates by aspirating. Plates were gently vortexed and 30 μL of live/dead stain (Invitrogen, L34975) in 1×dPBS was added and incubated for 15 minutes in the dark at 4° C. […] 100 μL of flow cytometry buffer was added and plates were centrifuged at 500×g for 4 minutes before supernatants were aspirated from the plates. Wells were resuspended in 200 μL flow cytometry buffer and plates stored at 4° C. before being run on the flow cytometer.
# Data was analysed using FlowJo and the compensation matrix applied to all samples. The gates were set using unstained and unstimulated samples.
IC50 [1] [nM],IC50 [2] [nM],MTHFD1/MTHFD2 IC50 ratio [2],SMILES,IC50 (human CD4+ T cells) [nM]
100 to 1000,1 to 10,J (>30),"[2H]C([2H])([2H])Oc1cc(C(=O)N2CCc3c(c(=O)oc4c(C)c(N5CCN(C)[C@@H](COC)C5)cc(Cl)c34)C2)c(F)cc1C(=O)NS(=O)(=O)N1CC2CC2C1 (stereo partly drawn) [Example 327, N-((3-azabicyclo[3.1.0]hexan-3-yl)sulfonyl)-4-(10-chloro-8-((R)-3-(methoxymethyl)-4-methylpiperazin-1-yl)-7-methyl-5-oxo-1,3,4,5-tetrahydro-2H-chromeno[3,4-c]pyridine-3-carbonyl)-5-fluoro-2-(methoxy-d3)benzamide]",100 to 1000
10 to 100,1 to 10,F (<3),"COC[C@H]1CN(c2cc(C)c3c4c(c(=O)oc3c2C)CN(C(=O)c2ccc(C(=O)NS(=O)(=O)N3CCCC3)c(N3CCCC3)c2F)CC4)CCN1C [Example 98, (R)-3-fluoro-4-(8-(3-(methoxymethyl)-4-methylpiperazin-1-yl)-7,10-dimethyl-5-oxo-1,3,4,5-tetrahydro-2H-chromeno[3,4-c]pyridine-3-carbonyl)-2-(pyrrolidin-1-yl)-N-(pyrrolidin-1-ylsulfonyl)benzamide]",10 to 30
100 to 1000,1 to 10,H (>9.0 to 30),"COC[C@H]1CN(c2cc(C)c3c4c(c(=O)oc3c2C)CN(C(=O)c2cc(N(C)C)c(C(=O)NS(=O)(=O)N3CC[C@@H](F)C3)cc2F)CC4)CCN1C [Example 314, 2-(dimethylamino)-5-fluoro-N-(((R)-3-fluoropyrrolidin-1-yl)sulfonyl)-4-(8-((R)-3-(methoxymethyl)-4-methylpiperazin-1-yl)-7,10-dimethyl-5-oxo-1,3,4,5-tetrahydro-2H-chromeno[3,4-c]pyridine-3-carbonyl)benzamide]",1 to 10
100 to 1000,1 to 10,,"COC[C@H]1CN(c2cc(Cl)c3c4c(c(=O)oc3c2C)CN(C(=O)c2cc(N(C)C)c(C(=O)NS(=O)(=O)N3CCCC3)cc2F)CC4)CCN1C [Example 247, (R)-4-(10-chloro-8-(3-(methoxymethyl)-4-methylpiperazin-1-yl)-7-methyl-5-oxo-1,3,4,5-tetrahydro-2H-chromeno[3,4-c]pyridine-3-carbonyl)-2-(dimethylamino)-5-fluoro-N-(pyrrolidin-1-ylsulfonyl)benzamide]",10 to 30
1000 to 5000,1 to 10,J (>30),"COC[C@H]1CN(c2cc(C)c3c4c(c(=O)oc3c2C)CN(C(=O)c2cc(N(C)C)c(C(=O)NS(=O)(=O)N3CCC[C@@H]3COC)cc2F)CC4)CCN1C [Example 311, 2-(dimethylamino)-5-fluoro-4-(8-((R)-3-(methoxymethyl)-4-methylpiperazin-1-yl)-7,10-dimethyl-5-oxo-1,3,4,5-tetrahydro-2H-chromeno[3,4-c]pyridine-3-carbonyl)-N-(((R)-2-(methoxymethyl)pyrrolidin-1-yl)sulfonyl)benzamide]",1 to 10
100 to 1000,1 to 10,J (>30),"CCOc1cc(C(=O)N2CCc3c(c(=O)oc4c(C)c(N5CCN(C)[C@@H](COC)C5)cc(C)c34)C2)c(F)cc1C(=O)NS(=O)(=O)N1CC[C@H](F)C1 [Example 268, 2-ethoxy-5-fluoro-N-(((S)-3-fluoropyrrolidin-1-yl)sulfonyl)-4-(8-((R)-3-(methoxymethyl)-4-methylpiperazin-1-yl)-7,10-dimethyl-5-oxo-1,3,4,5-tetrahydro-2H-chromeno[3,4-c]pyridine-3-carbonyl)benzamide]",1 to 10
100 to 1000,1 to 10,J (>30),"CCOc1cc(C(=O)N2CCc3c(c(=O)oc4c(C)c(N5CCN(C)[C@@H](COC)C5)cc(C)c34)C2)c(F)cc1C(=O)NS(=O)(=O)N1C[C@@H]2C[C@H]1CO2 [Example 267, N-(((1S,4S)-2-oxa-5-azabicyclo[2.2.1]heptan-5-yl)sulfonyl)-2-ethoxy-5-fluoro-4-(8-((R)-3-(methoxymethyl)-4-methylpiperazin-1-yl)-7,10-dimethyl-5-oxo-1,3,4,5-tetrahydro-2H-chromeno[3,4-c]pyridine-3-carbonyl)benzamide]",100 to 1000
100 to 1000,10 to 100,G (^ 3 to 9.0),"COC[C@H]1CN(c2cc(C)c3c4c(c(=O)oc3c2C)CN(C(=O)c2ccc(C(=O)NS(=O)(=O)N3CCCC3)c(OC(F)F)c2F)CC4)CCN1C [Example 171, (R)-2-(difluoromethoxy)-3-fluoro-4-(8-(3-(methoxymethyl)-4-methylpiperazin-1-yl)-7,10-dimethyl-5-oxo-1,3,4,5-tetrahydro-2H-chromeno[3,4-c]pyridine-3-carbonyl)-N-(pyrrolidin-1-ylsulfonyl)benzamide]",100 to 1000
100 to 1000,1 to 10,J (>30),"[2H]C([2H])([2H])Oc1cc(C(=O)N2CCc3c(c(=O)oc4c(C)c(N5CCN(C)[C@@H](COC)C5)cc(Cl)c34)C2)c(F)cc1C(=O)NS(=O)(=O)N1CCCC1 [Example 246, (R)-4-(10-chloro-8-(3-(methoxymethyl)-4-methylpiperazin-1-yl)-7-methyl-5-oxo-1,3,4,5-tetrahydro-2H-chromeno[3,4-c]pyridine-3-carbonyl)-5-fluoro-2-(methoxy-d3)-N-(pyrrolidin-1-ylsulfonyl)benzamide]",100 to 1000
1000 to 5000,1 to 10,J (>30),"COC[C@H]1CN(c2cc(Cl)c3c4c(c(=O)oc3c2C)CN(C(=O)c2cc(OC)c(C(=O)NS(=O)(=O)N3CCCC3)cc2F)CC4)CCN1C [Example 262, (R)-4-(10-chloro-8-(3-(methoxymethyl)-4-methylpiperazin-1-yl)-7-methyl-5-oxo-1,3,4,5-tetrahydro-2H-chromeno[3,4-c]pyridine-3-carbonyl)-5-fluoro-2-methoxy-N-(pyrrolidin-1-ylsulfonyl)benzamide]",30 to 100
10 to 100,1 to 10,J (>30),"COC[C@H]1CN(c2cc(C)c3c4c(c(=O)oc3c2C)CN(C(=O)c2cc(OC3CC3)c(C(=O)NS(=O)(=O)N3CCCC3)cc2F)CC4)CCN1C [Example 263, (R)-2-cyclopropoxy-5-fluoro-4-(8-(3-(methoxymethyl)-4-methylpiperazin-1-yl)-7,10-dimethyl-5-oxo-1,3,4,5-tetrahydro-2H-chromeno[3,4-c]pyridine-3-carbonyl)-N-(pyrrolidin-1-ylsulfonyl)benzamide]",10 to 30

SMILES,IC50 [1] [nM],IC50 [2] [nM],MTHFD1/MTHFD2 IC50 ratio [2],IC50 (human CD4+ T cells) [nM]
"COC[C@H]1CN(c2cc(C)c3c4c(c(=O)oc3c2C)CN(C(=O)c2cc(OC3CCC3)c(C(=O)NS(=O)(=O)C3(C)CC3)c(C(F)(F)F)c2)CC4)CCN1C [Example 130, (R)-2-cyclobutoxy-4-(8-(3-(methoxymethyl)-4-methylpiperazin-1-yl)-7,10-dimethyl-5-oxo-1,3,4,5-tetrahydro-2H-chromeno[3,4-c]pyridine-3-carbonyl)-N-((1-methylcyclopropyl)sulfonyl)-6-(trifluoromethyl)benzamide]",1000 to 5000,10 to 100,J (>30),1000 to 5000
"CCOc1cc(C(=O)N2CCc3c(c(=O)oc4c(C)c(N5CCN(C)[C@@H](COC)C5)cc(C)c34)C2)c(F)cc1C(=O)NS(=O)(=O)N1C2CCC1COC2 [Example 221, N-((3-oxa-8-azabicyclo[3.2.1]octan-8-yl)sulfonyl)-2-ethoxy-5-fluoro-4-(8-((R)-3-(methoxymethyl)-4-methylpiperazin-1-yl)-7,10-dimethyl-5-oxo-1,3,4,5-tetrahydro-2H-chromeno[3,4-c]pyridine-3-carbonyl)benzamide]",100 to 1000,10 to 100,H (>9.0 to 30),30 to 100
"COC[C@H]1CN(c2cc(C)c3c4c(c(=O)oc3c2C)CN(C(=O)c2cc(OC)c(C(=O)NS(=O)(=O)N3C5CCC3CC5)cc2F)CC4)CCN1C [Example 248, (R)-N-((7-azabicyclo[2.2.1]heptan-7-yl)sulfonyl)-5-fluoro-2-methoxy-4-(8-(3-(methoxymethyl)-4-methylpiperazin-1-yl)-7,10-dimethyl-5-oxo-1,3,4,5-tetrahydro-2H-chromeno[3,4-c]pyridine-3-carbonyl)benzamide]",100 to 1000,1 to 10,J (>30),30 to 100
"COC[C@H]1CN(c2cc(C)c3c4c(c(=O)oc3c2C)CN(C(=O)c2ccc(C(=O)NS(=O)(=O)N3C5CCC3CC5)c(OC)c2)CC4)CCN1C [Example 226, (R)-N-((7-azabicyclo[2.2.1]heptan-7-yl)sulfonyl)-2-methoxy-4-(8-(3-(methoxymethyl)-4-methylpiperazin-1-yl)-7,10-dimethyl-5-oxo-1,3,4,5-tetrahydro-2H-chromeno[3,4-c]pyridine-3-carbonyl)benzamide]",100 to 1000,10 to 100,J (>30),30 to 100
